# In article PMC6009888, “Design, synthesis, and pharmacological evaluation of 2-amino-5-nitrothiazole derived semicarbazones as dual inhibitors of monoamine oxidase and cholinesterase: effect of the size of aryl binding site” (Journal of Enzyme Inhibition and Medicinal Chemistry, 2017):
# Values joined by “and” are separate entries in the source; they are usually repeats but may differ in a detail not shown here. Equal values may be shown once. “Also recorded” adds a separate entry of the source. Read-outs that look alike come from different tables or passages of the source.
# Legend:
# MAO-A = target: T1, MAO-A (Rattus norvegicus, UniProt P21396); assay: In vitro MAO-A inhibition assay (rat brain mitochondria, serotonin substrate); assay type: biochemical; settings: for IC50: rat brain mitochondria, serotonin substrate, mean ± SEM, triplicate
# T1 construct: employing crude rat brain mitochondrial suspension; from tissue; host or cells: brain mitochondria of adult Wistar rats
# T1 sequence (P21396 1-526): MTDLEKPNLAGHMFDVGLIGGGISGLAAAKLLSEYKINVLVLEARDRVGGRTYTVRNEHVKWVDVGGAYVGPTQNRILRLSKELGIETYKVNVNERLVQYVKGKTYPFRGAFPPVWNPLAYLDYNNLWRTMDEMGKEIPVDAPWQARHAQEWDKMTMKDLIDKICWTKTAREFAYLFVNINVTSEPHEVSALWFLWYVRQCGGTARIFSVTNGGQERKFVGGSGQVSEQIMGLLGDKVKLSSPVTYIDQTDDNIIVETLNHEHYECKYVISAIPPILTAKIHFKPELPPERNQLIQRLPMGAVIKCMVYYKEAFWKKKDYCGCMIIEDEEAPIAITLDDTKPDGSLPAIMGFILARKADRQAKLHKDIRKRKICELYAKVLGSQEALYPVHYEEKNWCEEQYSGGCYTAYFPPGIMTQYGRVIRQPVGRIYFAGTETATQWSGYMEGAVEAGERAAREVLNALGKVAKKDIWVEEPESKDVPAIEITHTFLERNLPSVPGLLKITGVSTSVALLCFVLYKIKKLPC
# Description: (§1) Rat brain mitochondria were used as a source of MAO isoforms. All operations were carried out at 4 °C[50]. Male and female adult Wistar rats weighing 200–220 g were decapitated. All brains were rapidly removed and homogenised with a Potter–Elvehjem homogeniser in cold 0.32 M sucrose and 50 mM Tris-HCl, pH 8.2 (10:1, v/w). The homogenate was centrifuged twice at 1000 g for 5 min at 4 °C. The resulting supernatant was centrifuged at 20,000 g for 20 min. The mitochondrial pellet obtained was suspended in 100 mM sodium phosphate buffer, pH 7.4 (4:1, v/w), fractionated in plastic vials to 500 µl samples and stored at −80 °C. Before use, mitochondria were diluted with 100 mM sodium phosphate buffer to give a working solution of 0.80 mg of protein per millilitre.
# (§2) The experiments were carried out under all the suitable laboratory conditions. […] An aliquot was made to contain mixture of 55 µl mitochondrial suspension (0.80 mg of protein/ml), 90 µl 50 mM Tris-HCl buffer, pH 8.2 and 30 µl solubilising solution (control or inhibitor solution at five different concentrations). The reaction was initiated by adding 25 µl of serotonin (4 mM, substrate for MAO-A) and 25 µl benzylamine (0.1 M, substrate for MAO-B) for the determination of MAO-A and MAO-B activity, respectively. The mixture was incubated at 37 °C for 30 min and the reaction was stopped by the addition of 50 µl of 1 N HCl. The absorbance associated with the production of 5-hydroxyindolacetic acid was measured at 280 nm for the estimation of MAO-A while for MAO-B estimation, the absorbance was measured at 250 nm due to the formation of benzaldehyde. All the assays were performed in triplicate. Control experiments were carried out without inhibitor and blanks were run without mitochondrial suspension.
# (§3) Data are expressed as mean ± standard error mean (SEM) of experiments performed in triplicate.
# (§4) 0, 15, 30 and 60 min at 37 °C in Tris-HCl buffer (50 mM, pH 8.2). […] The reactions were further incubated at 37 °C for a further 15 min and the residual enzyme activities were measured and the bar graphs were constructed. All measurements were carried out in triplicate and are expressed as mean ± SEM.
# MAO-B = target: T2, MAO-B (Rattus norvegicus, UniProt P19643); assay: biochemical; settings: for SI (selectivity index for MAO-B): ratio of experimental IC50(MAO-A)/IC50(MAO-B)
# T2 construct: employing crude rat brain mitochondrial suspension; from tissue; host or cells: brain mitochondria of adult Wistar rats
# T2 sequence (P19643 1-520): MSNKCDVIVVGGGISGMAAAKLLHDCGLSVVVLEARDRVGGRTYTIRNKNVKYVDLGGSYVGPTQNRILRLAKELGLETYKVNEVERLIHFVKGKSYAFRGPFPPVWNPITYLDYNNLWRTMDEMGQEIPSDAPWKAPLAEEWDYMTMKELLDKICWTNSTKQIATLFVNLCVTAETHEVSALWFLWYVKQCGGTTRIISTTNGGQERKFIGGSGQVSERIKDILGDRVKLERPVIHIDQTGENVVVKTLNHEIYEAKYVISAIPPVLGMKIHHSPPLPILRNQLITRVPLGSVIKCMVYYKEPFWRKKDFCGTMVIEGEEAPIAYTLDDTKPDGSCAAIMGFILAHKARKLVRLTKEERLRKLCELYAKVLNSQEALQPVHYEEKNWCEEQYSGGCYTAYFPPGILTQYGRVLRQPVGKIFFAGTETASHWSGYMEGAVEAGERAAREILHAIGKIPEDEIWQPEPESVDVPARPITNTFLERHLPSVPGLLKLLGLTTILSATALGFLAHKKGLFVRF
# Description: as §1, §2, §3, §4
# rat brain AChE = target: T3, rat brain AChE (Rattus norvegicus, UniProt P37136); assay: biochemical; assay type: biochemical; settings: for IC50: rat brain AChE, ACTI substrate, mean ± SEM, triplicate
# T3 construct: the resulting clear supernatants obtained were used as enzyme sources; from tissue; host or cells: rat brain cortex homogenate, 10,000 g supernatant
# Description: Rat brain was used as a source of AChE enzyme. Rats were separately decapitated, the brain cortices quickly removed, weighed and homogenised in cold 10 mM Tris-HCl buffer, pH 7.2, containing 160 mM sucrose. The homogenates were centrifuged at 10,000 g for 10 min at 4 °C, and the resulting clear supernatants obtained were used as enzyme sources that were divided into aliquots and stored at −20 °C.
# (§5) About 30 µl of enzyme sample (AChE) was added to 60 µl of 20 mM sodium phosphate buffer (pH 7.4) and were incubated in the presence of 30 µl of 10 mM DTNB solution with different concentrations of the test compounds. The enzyme reaction was initiated by the addition of 30 µl of 0.8 mM ACTI. The mixtures were incubated for 15 min at 25 °C. […] Control experiments were carried out without inhibitor, and blanks were run without AChE enzyme. All the assays were performed in triplicate. IC50 values were determined using the GraphPad Prism 5.0 (San Diego, CA) and the results were expressed as mean ± SEM.
# as §4, with “25” for “37”, “sodium phosphate” for “Tris-HCl”, “(20” for “(50”, “7.4) and DTNB solution (10 mM).” for “8.2).”, “reaction was” for “reactions were”
# equine serum BuChE = target: T4, equine serum BuChE (Equus caballus, UniProt P81908); assay: In vitro BuChE inhibition assay (Ellman's method, equine serum BuChE); assay type: biochemical
# T4 construct: equine serum BuChE was used as enzyme; purchased Sigma-Aldrich; host or cells: equine serum
# Description: as §5
# The BuChE activity was assayed as per the procedure followed for AChE activity except that equine serum BuChE was used as enzyme and butyrylthiocholine iodide (BuTI) was used as substrate.
# as §4, with “25” for “37”, “sodium phosphate” for “Tris-HCl”, “(20” for “(50”, “7.4) and DTNB solution (10 mM).” for “8.2).”, “reaction was” for “reactions were”
# [1] = read-out: MAO-A In vitro IC50 (µM) ± SEM
# [2] = time-dependent inhibition, pre-incubation 0, 15, 30, 60 min
# [3] = read-out: AChE In vitro IC50 (µM) ± SEM
# [4] = equine serum BuChE, BuTI substrate, mean ± SEM, read-out: BuChE In vitro IC50 (µM) ± SEM
# T4 sequence (P81908 whole entry): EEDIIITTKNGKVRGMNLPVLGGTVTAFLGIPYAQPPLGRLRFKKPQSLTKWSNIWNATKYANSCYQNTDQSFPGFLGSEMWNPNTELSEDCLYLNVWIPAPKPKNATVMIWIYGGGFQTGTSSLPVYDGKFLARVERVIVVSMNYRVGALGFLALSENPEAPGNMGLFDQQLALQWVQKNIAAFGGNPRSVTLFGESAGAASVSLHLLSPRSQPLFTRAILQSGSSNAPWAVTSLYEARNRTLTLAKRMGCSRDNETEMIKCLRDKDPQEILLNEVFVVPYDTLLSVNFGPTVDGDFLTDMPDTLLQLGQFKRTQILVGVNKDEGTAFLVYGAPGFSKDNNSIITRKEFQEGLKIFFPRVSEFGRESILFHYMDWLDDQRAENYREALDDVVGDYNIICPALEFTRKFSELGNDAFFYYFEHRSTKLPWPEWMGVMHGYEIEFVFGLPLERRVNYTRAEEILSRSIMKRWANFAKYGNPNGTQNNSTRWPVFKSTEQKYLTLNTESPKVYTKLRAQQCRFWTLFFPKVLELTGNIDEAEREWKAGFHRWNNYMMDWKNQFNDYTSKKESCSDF
# T3 sequence (P37136 32-614): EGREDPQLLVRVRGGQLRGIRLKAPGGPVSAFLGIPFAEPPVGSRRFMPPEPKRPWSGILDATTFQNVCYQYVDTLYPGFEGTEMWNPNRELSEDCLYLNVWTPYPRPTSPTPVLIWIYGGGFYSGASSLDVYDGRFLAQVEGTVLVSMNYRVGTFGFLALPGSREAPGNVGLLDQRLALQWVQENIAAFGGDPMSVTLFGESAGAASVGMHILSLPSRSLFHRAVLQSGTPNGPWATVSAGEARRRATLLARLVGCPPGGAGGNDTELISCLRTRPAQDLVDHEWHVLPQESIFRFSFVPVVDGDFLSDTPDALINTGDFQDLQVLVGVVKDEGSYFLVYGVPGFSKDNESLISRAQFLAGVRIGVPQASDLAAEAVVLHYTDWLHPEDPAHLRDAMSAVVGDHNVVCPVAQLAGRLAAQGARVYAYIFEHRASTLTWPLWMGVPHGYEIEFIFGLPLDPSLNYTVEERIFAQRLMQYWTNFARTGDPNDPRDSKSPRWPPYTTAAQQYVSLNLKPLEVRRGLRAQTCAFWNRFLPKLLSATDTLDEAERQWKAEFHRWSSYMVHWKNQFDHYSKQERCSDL
SMILES,IC50 (MAO-A; [1]),IC50 (MAO-B),SI (selectivity index for MAO-B) (MAO-B),IC50 (rat brain AChE; [3]),IC50 (equine serum BuChE; [4]),logP (physchem; octanol/water),other results
"CC(=NNC(=O)Nc1ncc([N+](=O)[O-])s1)c1ccc(Br)cc1 [Compound 4, 1-(1-(4-Bromophenyl)ethylidene)-4-(5-nitrothiazol-2-yl)semicarbazide]",< 100 µM and 70.2 µM,0.212 ± 0.004 µM,331.08,0.34 ± 0.007 µM,0.499 ± 0.003 µM,2.2,"Ki (MAO-B): 11.7 ± 0.58 µM; Mode of MAO-B inhibition (MAO-B; Lineweaver–Burk plots, benzylamine): competitive; also recorded: competitively; Reversibility of MAO-B inhibition (MAO-B; [2]): reversible"
"CC(=NNC(=O)Nc1ncc([N+](=O)[O-])s1)c1ccc(Cl)cc1 [Compound 5, 1-(1-(4-Chlorophenyl)ethylidene)-4-(5-nitrothiazol-2-yl)semicarbazide]",4761 ± 10.8 µM,0.601 ± 0.015 µM,7921.79,356 ± 4.73 µM,0.553 ± 0.038 µM,2.1,AChE: fold decrease in activity versus bromo substitution (compound 4) (rat brain AChE; halogen at carbimino terminal phenyl ring): > 1000 fold
"O=C(NN=C(c1ccc(Cl)cc1)c1ccc(Cl)cc1)Nc1ncc([N+](=O)[O-])s1 [Compound 19, 1-(Bis(4-chlorophenyl)methylene)-4-(5-nitrothiazol-2-yl)semicarbazide]",,1.48 ± 0.063 µM,34360.43,,,,IC50 (MAO-A; MAO-A In vitro IC50 (µM) ± SEM): > 100 µM and 50700 µM; MAO-B: fold increase in activity relative to compound 17 (MAO-B; diaryl analogues): ~19.32 fold; IC50 (rat brain AChE; AChE In vitro IC50 (µM) ± SEM): 1.45 ± 0.047 µM; AChE: fold increase in activity relative to compound 17 (rat brain AChE; diaryl analogues): ~7.95 fold; IC50 (equine serum BuChE): 5.72 ± 0.874 µM; BuChE: fold less active relative to compound 17 (equine serum BuChE; diaryl analogues): ~238 fold; logP (physchem): 3.9
"O=C(NN=C1C(=O)Nc2ccc(Br)cc21)Nc1ncc([N+](=O)[O-])s1 [Compound 21, 1-(5-Bromo-2-oxoindolin-3-ylidene)-4–(5-nitrothiazol-2-yl)semicarbazide]",< 100 µM and 57.2 µM,0.734 ± 0.006 µM,77.94,0.264 µM,5.37 ± 0.278 µM,1.9,"Mode of MAO-A inhibition (MAO-A; Lineweaver–Burk plots, serotonin): non-competitively; Ki (MAO-A; kinetic study, non-competitive model, GraphPad Prism, read-out: Ki (dissociation constant) against MAO-A): 17.3 ± 1.79 µM; Reversibility of MAO-A inhibition (MAO-A; [2]): reversible; Mode of AChE inhibition (rat brain AChE; Lineweaver–Burk plots, ACTI): mixed-type; Reversibility of AChE inhibition (rat brain AChE; [2]): reversible; BuChE: fold reduction in activity compared to compound 4 (equine serum BuChE; ratio of IC50 values): ~10.75 fold; BuChE: fold reduction in activity compared to compound 5 (equine serum BuChE; ratio of IC50 values): ~9.7 fold"
